# Read-outs that look alike come from different tables or passages of the source.
# How the values were obtained:
# BTK = target: T1, BTK (Homo sapiens, UniProt Q06187); assay: KINOMEscan ScanTK; assay type: binding; settings: for remaining binding at 1 µM: BTK; for inhibition at 1 µM: ScanTK
# T1 construct: purchased Eurofins DiscoverX KINOMEscan (scanTK)
# CSK = target: T2, CSK (Homo sapiens, UniProt P41240); assay: KINOMEscan ScanTK; assay type: binding
# T2 construct: purchased Eurofins DiscoverX KINOMEscan (scanTK)
# [1] = target: T3, EGFR(L747-S752del, P753S) (Homo sapiens, UniProt P00533, DEL747-752/P753S); assay: KINOMEscan ScanTK; assay type: binding
# T3 construct: purchased Eurofins DiscoverX KINOMEscan (scanTK)
# FGFR4 = target: T4, FGFR4 (Homo sapiens, UniProt P22455); assay: KINOMEscan ScanTK; assay type: binding
# T4 construct: purchased Eurofins DiscoverX KINOMEscan (scanTK)
# FLT3(K663Q) = target: T5, FLT3(K663Q) (Homo sapiens, UniProt P36888, K663Q); assay: KINOMEscan ScanTK; assay type: binding
# T5 construct: purchased Eurofins DiscoverX KINOMEscan (scanTK)
# T5 sequence (P36888 27-993 K663Q): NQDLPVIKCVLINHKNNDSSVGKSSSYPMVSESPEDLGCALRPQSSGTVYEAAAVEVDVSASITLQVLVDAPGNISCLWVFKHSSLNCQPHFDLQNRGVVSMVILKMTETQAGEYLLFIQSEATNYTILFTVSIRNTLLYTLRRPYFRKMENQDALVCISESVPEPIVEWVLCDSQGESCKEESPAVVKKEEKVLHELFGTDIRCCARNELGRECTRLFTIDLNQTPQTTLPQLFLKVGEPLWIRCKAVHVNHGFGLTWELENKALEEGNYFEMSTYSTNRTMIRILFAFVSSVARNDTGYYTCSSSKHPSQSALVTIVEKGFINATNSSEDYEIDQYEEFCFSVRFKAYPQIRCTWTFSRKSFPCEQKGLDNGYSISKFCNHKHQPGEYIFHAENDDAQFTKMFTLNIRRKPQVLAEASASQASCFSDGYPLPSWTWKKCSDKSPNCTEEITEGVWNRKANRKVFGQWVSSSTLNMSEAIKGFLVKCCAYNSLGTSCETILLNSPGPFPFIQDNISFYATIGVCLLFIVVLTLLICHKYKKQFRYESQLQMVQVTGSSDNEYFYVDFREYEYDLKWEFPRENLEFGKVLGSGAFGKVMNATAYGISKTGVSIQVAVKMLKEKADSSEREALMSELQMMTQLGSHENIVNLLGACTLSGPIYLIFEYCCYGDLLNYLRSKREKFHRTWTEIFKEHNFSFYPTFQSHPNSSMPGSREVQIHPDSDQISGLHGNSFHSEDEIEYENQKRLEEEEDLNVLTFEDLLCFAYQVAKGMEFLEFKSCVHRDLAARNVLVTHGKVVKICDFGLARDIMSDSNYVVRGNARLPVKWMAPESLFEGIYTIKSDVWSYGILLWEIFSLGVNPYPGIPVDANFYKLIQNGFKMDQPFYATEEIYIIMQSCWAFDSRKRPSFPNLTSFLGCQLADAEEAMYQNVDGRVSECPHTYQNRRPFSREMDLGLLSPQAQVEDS
# KIT(V559D,T670I) = target: T6, KIT(V559D,T670I) (Homo sapiens, UniProt P10721, T670I/V559D); assay: KINOMEscan ScanTK; assay type: binding
# T6 construct: purchased Eurofins DiscoverX KINOMEscan (scanTK)
# KIT(V559D,V654A) = target: T7, KIT(V559D,V654A) (Homo sapiens, UniProt P10721, V559D/V654A); assay: KINOMEscan ScanTK; assay type: binding
# T7 construct: purchased Eurofins DiscoverX KINOMEscan (scanTK)
# MET(Y1235D) = target: T8, MET(Y1235D) (Homo sapiens, UniProt P08581, Y1235D); assay: KINOMEscan ScanTK; assay type: binding
# T8 construct: purchased Eurofins DiscoverX KINOMEscan (scanTK)
# RET(M918T) = target: T9, RET(M918T) (Homo sapiens, UniProt P07949, M918T); assay: KINOMEscan ScanTK; assay type: binding
# T9 construct: purchased Eurofins DiscoverX KINOMEscan (scanTK)
# ROS1 = target: T10, ROS1 (Homo sapiens, UniProt P08922); assay: KINOMEscan ScanTK; assay type: binding; settings: for %Control difference versus reference Ib at 1 µM: read-out: % difference (compound - Ib %Control)
# T10 construct: purchased Eurofins DiscoverX KINOMEscan (scanTK)
# SRC = target: T11, SRC (Homo sapiens, UniProt P12931); assay: KINOMEscan ScanTK; assay type: binding
# T11 construct: purchased Eurofins DiscoverX KINOMEscan (scanTK)
# TXK = target: T12, TXK (Homo sapiens, UniProt P42681); assay: KINOMEscan ScanTK; assay type: binding
# T12 construct: purchased Eurofins DiscoverX KINOMEscan (scanTK)
# T12 sequence (P42681 1-527): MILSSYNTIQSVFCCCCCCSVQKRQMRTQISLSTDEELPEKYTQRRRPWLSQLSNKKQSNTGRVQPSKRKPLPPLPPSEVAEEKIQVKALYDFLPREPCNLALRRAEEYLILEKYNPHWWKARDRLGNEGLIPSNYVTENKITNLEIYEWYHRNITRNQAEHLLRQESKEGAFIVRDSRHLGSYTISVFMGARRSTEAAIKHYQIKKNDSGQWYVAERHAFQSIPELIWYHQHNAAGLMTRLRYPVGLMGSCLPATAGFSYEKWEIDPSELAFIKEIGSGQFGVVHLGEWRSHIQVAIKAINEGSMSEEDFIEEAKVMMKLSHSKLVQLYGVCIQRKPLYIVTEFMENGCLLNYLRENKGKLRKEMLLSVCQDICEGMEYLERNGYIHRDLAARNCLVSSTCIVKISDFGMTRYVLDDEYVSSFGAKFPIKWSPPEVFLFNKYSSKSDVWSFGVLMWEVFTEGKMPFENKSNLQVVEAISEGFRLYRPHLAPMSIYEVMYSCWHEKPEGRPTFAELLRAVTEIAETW
# BTK Y223 phosphorylation = assay: Immunoblotting, anti-IgM-induced signaling in OCI-LY7 cells; settings: 500 nM, 1 h
# Protocol: We also investigated the effects of the compounds (at 500 nM) on sIgM signaling by analyzing the phosphorylation status of key signaling molecules activated downstream of the BCR.
# Secondary antibodies were horseradish peroxidase-conjugated antibodies (GE Healthcare). Images were captured using the Amersham ImageQuant 800 System and quantified using ImageJ (http://imagej.nih.gov/ij/). Expression of phosphorylated proteins was normalized to the equivalent total protein with values for DMSO/anti-IgM set to 100%.
# [2] = @1000nM, read-out: % difference (compound - Ib %Control)
# T7 sequence (P10721 26-976 V559D/V654A): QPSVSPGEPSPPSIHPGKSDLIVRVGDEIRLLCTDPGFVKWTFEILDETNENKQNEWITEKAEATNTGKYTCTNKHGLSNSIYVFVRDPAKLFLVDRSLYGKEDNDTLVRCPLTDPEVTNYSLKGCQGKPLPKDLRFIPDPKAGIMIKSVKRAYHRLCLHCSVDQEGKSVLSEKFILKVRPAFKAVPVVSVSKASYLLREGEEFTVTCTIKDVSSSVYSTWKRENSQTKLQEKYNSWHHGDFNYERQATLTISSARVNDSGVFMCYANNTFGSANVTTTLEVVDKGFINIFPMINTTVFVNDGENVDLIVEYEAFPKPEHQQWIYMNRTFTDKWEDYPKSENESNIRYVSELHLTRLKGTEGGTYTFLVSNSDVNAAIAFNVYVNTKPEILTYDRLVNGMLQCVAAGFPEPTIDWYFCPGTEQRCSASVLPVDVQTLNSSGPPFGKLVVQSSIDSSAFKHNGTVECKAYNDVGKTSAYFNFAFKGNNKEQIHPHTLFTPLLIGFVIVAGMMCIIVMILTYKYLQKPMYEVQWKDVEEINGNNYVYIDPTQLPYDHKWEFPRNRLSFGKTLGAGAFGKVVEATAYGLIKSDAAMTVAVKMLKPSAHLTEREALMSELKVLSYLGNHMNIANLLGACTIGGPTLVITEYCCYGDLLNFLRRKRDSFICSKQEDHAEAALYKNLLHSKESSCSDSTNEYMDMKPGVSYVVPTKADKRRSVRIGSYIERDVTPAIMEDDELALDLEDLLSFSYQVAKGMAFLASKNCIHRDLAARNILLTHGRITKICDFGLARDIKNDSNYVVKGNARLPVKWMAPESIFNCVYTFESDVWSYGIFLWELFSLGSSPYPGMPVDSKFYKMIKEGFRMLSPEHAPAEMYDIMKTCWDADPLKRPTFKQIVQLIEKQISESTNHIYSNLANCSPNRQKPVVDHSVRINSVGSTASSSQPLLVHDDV
# T10 sequence (P08922 28-2347): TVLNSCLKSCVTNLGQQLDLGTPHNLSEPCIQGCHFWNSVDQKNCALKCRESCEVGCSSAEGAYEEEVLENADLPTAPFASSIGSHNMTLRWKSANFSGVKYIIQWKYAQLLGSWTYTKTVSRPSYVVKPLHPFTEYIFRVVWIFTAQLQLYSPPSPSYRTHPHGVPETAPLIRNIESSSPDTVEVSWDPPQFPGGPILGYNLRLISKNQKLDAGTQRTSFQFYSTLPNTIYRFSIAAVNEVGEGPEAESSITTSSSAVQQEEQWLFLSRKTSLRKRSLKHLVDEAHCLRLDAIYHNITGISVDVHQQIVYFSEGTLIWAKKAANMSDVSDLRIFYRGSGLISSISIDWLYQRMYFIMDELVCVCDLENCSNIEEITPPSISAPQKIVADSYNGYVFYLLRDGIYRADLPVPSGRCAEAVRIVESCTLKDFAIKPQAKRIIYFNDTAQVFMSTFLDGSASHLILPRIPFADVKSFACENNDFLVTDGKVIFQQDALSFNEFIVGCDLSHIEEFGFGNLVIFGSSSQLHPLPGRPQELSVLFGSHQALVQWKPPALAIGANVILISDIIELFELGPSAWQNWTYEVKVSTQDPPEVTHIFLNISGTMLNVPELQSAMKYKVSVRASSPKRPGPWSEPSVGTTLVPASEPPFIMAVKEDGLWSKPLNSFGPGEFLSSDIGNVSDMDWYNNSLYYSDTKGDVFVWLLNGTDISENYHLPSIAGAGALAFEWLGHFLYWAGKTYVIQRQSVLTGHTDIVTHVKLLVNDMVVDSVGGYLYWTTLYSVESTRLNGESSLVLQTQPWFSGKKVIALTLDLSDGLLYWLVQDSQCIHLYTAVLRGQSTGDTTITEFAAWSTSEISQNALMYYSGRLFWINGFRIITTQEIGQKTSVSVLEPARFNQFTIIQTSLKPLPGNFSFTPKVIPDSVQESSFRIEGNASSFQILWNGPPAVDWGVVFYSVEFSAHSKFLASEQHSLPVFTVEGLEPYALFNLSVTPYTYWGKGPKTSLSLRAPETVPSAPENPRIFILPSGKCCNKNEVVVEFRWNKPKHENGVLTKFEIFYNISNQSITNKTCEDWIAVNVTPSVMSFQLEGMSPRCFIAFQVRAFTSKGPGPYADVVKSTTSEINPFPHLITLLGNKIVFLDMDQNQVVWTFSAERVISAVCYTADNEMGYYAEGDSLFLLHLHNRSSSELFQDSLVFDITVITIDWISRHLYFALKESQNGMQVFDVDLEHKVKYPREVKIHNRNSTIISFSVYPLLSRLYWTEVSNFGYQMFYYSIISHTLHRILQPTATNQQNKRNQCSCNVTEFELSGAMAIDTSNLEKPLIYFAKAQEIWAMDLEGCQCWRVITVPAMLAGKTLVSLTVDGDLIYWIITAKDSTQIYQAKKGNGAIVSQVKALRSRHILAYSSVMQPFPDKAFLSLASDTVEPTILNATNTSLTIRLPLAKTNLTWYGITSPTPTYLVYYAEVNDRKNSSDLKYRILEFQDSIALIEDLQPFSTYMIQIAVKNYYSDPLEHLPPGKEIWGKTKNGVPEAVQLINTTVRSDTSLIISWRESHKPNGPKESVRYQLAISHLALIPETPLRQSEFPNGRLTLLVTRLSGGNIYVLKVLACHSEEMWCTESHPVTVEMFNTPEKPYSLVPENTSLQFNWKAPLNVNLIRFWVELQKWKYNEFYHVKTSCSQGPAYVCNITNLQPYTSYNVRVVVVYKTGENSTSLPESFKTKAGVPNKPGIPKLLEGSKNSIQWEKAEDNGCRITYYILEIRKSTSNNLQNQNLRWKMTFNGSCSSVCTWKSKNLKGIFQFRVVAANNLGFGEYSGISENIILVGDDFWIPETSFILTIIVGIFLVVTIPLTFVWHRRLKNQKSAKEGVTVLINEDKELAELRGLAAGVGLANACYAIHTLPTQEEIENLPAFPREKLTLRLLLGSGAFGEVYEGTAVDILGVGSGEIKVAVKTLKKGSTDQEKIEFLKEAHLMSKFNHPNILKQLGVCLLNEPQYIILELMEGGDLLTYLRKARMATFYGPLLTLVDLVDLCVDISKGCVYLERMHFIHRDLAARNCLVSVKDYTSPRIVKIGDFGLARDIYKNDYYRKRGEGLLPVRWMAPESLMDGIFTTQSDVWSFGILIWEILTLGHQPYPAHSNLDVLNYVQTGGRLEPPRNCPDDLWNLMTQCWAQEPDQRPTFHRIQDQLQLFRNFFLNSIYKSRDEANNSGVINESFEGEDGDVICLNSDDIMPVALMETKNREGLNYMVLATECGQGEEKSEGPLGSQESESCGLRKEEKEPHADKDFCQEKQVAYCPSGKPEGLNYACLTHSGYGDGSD
# T1 sequence (Q06187 whole entry): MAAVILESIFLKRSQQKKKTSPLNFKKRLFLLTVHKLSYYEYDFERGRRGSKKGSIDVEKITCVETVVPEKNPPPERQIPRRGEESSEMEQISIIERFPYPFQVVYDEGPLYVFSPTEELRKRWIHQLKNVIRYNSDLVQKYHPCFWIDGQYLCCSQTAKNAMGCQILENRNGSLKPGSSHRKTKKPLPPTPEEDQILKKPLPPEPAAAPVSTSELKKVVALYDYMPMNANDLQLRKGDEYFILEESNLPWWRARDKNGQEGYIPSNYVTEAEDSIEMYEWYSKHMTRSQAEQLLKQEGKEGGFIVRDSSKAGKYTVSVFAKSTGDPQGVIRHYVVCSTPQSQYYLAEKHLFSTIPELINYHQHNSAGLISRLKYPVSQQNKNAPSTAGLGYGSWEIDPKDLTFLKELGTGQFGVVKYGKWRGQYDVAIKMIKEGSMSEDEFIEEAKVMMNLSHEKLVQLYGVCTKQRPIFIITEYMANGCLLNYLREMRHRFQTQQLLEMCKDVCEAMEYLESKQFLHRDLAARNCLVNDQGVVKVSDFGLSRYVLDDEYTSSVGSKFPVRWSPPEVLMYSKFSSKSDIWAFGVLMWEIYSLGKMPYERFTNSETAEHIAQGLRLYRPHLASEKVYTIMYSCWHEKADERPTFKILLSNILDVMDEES
# T4 sequence (P22455 22-802): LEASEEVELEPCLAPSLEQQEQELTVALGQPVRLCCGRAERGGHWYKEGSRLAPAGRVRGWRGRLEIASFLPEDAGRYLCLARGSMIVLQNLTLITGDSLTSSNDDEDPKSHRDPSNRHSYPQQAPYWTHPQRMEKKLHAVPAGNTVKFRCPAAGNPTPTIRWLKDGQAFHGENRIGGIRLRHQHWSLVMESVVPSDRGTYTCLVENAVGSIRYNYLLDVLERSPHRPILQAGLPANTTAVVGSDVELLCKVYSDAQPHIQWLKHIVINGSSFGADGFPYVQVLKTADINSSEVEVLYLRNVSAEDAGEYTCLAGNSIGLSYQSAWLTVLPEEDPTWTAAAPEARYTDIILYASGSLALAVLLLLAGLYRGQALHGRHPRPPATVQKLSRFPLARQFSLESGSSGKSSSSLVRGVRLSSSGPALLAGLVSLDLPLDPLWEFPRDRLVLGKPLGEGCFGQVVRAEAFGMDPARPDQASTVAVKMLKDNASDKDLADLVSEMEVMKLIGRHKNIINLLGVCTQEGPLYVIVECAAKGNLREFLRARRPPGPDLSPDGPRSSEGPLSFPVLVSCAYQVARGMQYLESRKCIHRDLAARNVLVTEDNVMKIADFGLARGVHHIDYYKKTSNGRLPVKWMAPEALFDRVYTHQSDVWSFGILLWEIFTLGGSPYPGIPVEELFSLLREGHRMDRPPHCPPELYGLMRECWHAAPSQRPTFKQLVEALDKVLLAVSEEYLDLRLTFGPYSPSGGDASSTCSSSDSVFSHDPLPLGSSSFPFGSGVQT
# T6 sequence (P10721 26-976 V559D/T670I): as the sequence (P10721 26-976 V559D/V654A) above, with A629V, T645I counted along it
# T3 sequence (P00533 with tags, fused parts or gaps DEL747-752/P753S limits assumed): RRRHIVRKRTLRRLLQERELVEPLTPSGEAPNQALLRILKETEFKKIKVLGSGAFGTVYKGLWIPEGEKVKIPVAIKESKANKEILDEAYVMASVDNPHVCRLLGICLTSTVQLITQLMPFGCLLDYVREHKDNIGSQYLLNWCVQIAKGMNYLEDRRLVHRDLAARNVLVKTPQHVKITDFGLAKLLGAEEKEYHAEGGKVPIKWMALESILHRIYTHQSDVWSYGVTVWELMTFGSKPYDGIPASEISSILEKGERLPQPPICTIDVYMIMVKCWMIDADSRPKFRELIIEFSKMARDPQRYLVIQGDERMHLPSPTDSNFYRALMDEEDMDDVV
Compound,remaining binding at 1 µM (BTK; [2]) [%],"remaining binding at 1 µM (BTK; @1000nM, read-out: %Control) [%]",remaining binding at 1 µM (BTK; read-out: %Control @1000nM) [%],inhibition at 1 µM (BTK) [%],"remaining binding at 1 µM (CSK; @1000nM, read-out: %Control) [%]",remaining binding at 1 µM (CSK; read-out: %Control @1000nM) [%],"remaining binding at 1 µM (FGFR4; @1000nM, read-out: %Control) [%]",remaining binding at 1 µM (FGFR4; read-out: %Control @1000nM) [%],"remaining binding at 1 µM (FLT3(K663Q); @1000nM, read-out: %Control) [%]",remaining binding at 1 µM (FLT3(K663Q); read-out: %Control @1000nM) [%],"remaining binding at 1 µM (KIT(V559D,T670I); @1000nM, read-out: %Control) [%]","remaining binding at 1 µM (KIT(V559D,T670I); read-out: %Control @1000nM) [%]","remaining binding at 1 µM (MET(Y1235D); @1000nM, read-out: %Control) [%]",remaining binding at 1 µM (MET(Y1235D); read-out: %Control @1000nM) [%],"remaining binding at 1 µM (RET(M918T); @1000nM, read-out: %Control) [%]",remaining binding at 1 µM (RET(M918T); read-out: %Control @1000nM) [%],"remaining binding at 1 µM (ROS1; @1000nM, read-out: %Control) [%]",remaining binding at 1 µM (ROS1; read-out: %Control @1000nM) [%],"remaining binding at 1 µM (TXK; @1000nM, read-out: %Control) [%]",remaining binding at 1 µM (TXK; read-out: %Control @1000nM) [%],other results
"CNC(=O)c1cnc(S(C)(=O)=O)nc1N1CCCC(n2nc(-c3ccc(Oc4ccccc4)cc3)c3c(N)ncnc32)C1 (stereo not drawn) [Compound 8d, 4-(3-(4-Amino-3-(4-phenoxyphenyl)-1H-pyrazolo[3,4-d]pyrimidin-1-yl)piperidin-1-yl)-N-methyl-2-(methylsulfonyl)pyrimidine-5-carboxamide]",0,0,0,> 99,8.1,8.1,100,100,80,80,79,79,91,91,32,32,100,100,10,10,"difference in %Control from reference compound Ib at 1 µM (CSK; @1000nM): 3.6%; difference in %Control versus compound Ib at 1 µM ([1]; @1000nM): 36.5%; remaining binding at 1 µM ([1]; @1000nM, read-out: %Control): 42%; remaining binding at 1 µM ([1]; read-out: %Control @1000nM): 42%; difference in %Control from compound Ib at 1 µM (FGFR4; @1000nM): 4%; difference in %Control from compound Ib at 1 µM (FLT3(K663Q); @1000nM): 36%; difference in %Control versus compound Ib at 1 µM (KIT(V559D,T670I); @1000nM): 11%; remaining binding at 1 µM (KIT(V559D,V654A); @1000nM, read-out: %Control): 94%; remaining binding at 1 µM (KIT(V559D,V654A); read-out: %Control @1000nM): 94%; %Control difference versus reference Ib at 1 µM (ROS1; @1000nM): 3%; remaining binding at 1 µM (SRC; @1000nM, read-out: %Control): 43%; remaining binding at 1 µM (SRC; read-out: %Control @1000nM): 43%"
"C=CC(=O)N1CCC[C@@H](n2nc(-c3ccc(Oc4ccccc4)cc3)c3c(N)ncnc32)C1 [Compound 1g, Ibrutinib, reference compound]",,,,,4.5,4.5,96,96,44,44,68,68,96,96,14,14,97,97,8.7,8.7,anti-IgM-induced BTK Y223 phosphorylation (BTK Y223 phosphorylation): strongly inhibited
"Cc1cnc(S(C)(=O)=O)nc1N1CCCC(n2nc(-c3ccc(Oc4ccccc4)cc3)c3c(N)ncnc32)C1 (stereo not drawn) [Compound 8a, 1-(1-(5-Methyl-2-(methylsulfonyl)pyrimidin-4-yl)piperidin-3-yl)-3-(4-phenoxyphenyl)-1H-pyrazolo[3,4-d]pyrimidin-4-amine]",0.1,0.1,0.1,> 99,6.6,6.6,97,97,58,58,68,68,100,100,53,53,93,93,14,14,"difference in %Control from reference compound Ib at 1 µM (CSK; @1000nM): 2.1%; difference in %Control versus compound Ib at 1 µM ([1]; @1000nM): 88.5%; remaining binding at 1 µM ([1]; @1000nM, read-out: %Control): 94%; remaining binding at 1 µM ([1]; read-out: %Control @1000nM): 94%; difference in %Control from compound Ib at 1 µM (FGFR4; @1000nM): 1%; difference in %Control from compound Ib at 1 µM (FLT3(K663Q); @1000nM): 14%; difference in %Control versus compound Ib at 1 µM (KIT(V559D,T670I); @1000nM): 0%; remaining binding at 1 µM (KIT(V559D,V654A); @1000nM, read-out: %Control): 90%; remaining binding at 1 µM (KIT(V559D,V654A); read-out: %Control @1000nM): 90%; %Control difference versus reference Ib at 1 µM (ROS1; @1000nM): -4%; remaining binding at 1 µM (SRC; @1000nM, read-out: %Control): 17%; remaining binding at 1 µM (SRC; read-out: %Control @1000nM): 17%"

# From article PMC11345841, “Exploring 2-Sulfonylpyrimidine Warheads as Acrylamide Surrogates for Targeted Covalent Inhibition: A BTK Story” (Journal of Medicinal Chemistry, 2024)
